According to ChEMBL document CHEMBL5241090, “A comprehensive overview of β-carbolines and its derivatives as anticancer agents” (Eur J Med Chem, 2021):
Values after ≈ are worked out from the molar mass of the structure shown.

Legend:
Type in all cases: functional, cell-based
KB [1] = experiment: Cytotoxicity against human KB cells
LoVo [2] = experiment: Cytotoxicity against human LoVo cells
K562 = experiment: Cytotoxicity against human K562 cells
A549 [3] = experiment: Cytotoxicity against human A549 cells by MTT assay
OVCAR-3 [4] = experiment: Cytotoxicity against human OVCAR-3 cells by MTT assay
SW480 = experiment: Cytotoxicity against human SW480 cells by MTT assay
PC-3 [5] = experiment: Cytotoxicity against human PC-3 cells by MTT assay
HL-60 = experiment: Cytotoxicity against human HL-60 cells; conditions: hl-60
[6] = Cytotoxicity against human BGC cells
MCF7 [7] = experiment: Cytotoxicity against human MCF7 cells
HeLa [8] = experiment: Cytotoxicity against human HeLa cells
Hep 3B2 = experiment: Cytotoxicity against human Hep3B cells
NCI-H460 [9] = experiment: Antitumor activity against human NCI-H460 cells assessed as inhibition of cell growth measured after 48 hrs by spectrophotometric analysis; conditions: NCI-H460, 48 h
HT-29 [10] = experiment: Antitumor activity against human HT-29 cells assessed as inhibition of cell growth measured after 48 hrs by spectrophotometric analysis; conditions: HT-29, 48 h
PC-3 [11] = experiment: Antitumor activity against human PC-3 cells assessed as inhibition of cell growth measured after 48 hrs by spectrophotometric analysis; conditions: PC-3, 48 h
MCF7 [12] = experiment: Antitumor activity against human MCF7 cells assessed as inhibition of cell growth measured after 48 hrs by spectrophotometric analysis; conditions: MCF7, 48 h
786-0 [13] = experiment: Antitumor activity against human 786-0 cells assessed as inhibition of cell growth measured after 48 hrs by spectrophotometric analysis; conditions: 786-0, 48 h
U-251 = experiment: Antitumor activity against human U-251 cells assessed as inhibition of cell growth measured after 48 hrs by spectrophotometric analysis; conditions: U-251, 48 h
NCI/ADR-RES = experiment: Antitumor activity against human NCI-ADR-RES cells assessed as inhibition of cell growth measured after 48 hrs by spectrophotometric analysis
OVCAR-3 [14] = experiment: Antitumor activity against human OVCAR-3 cells assessed as inhibition of cell growth measured after 48 hrs by spectrophotometric analysis; conditions: OVCAR-3, 48 h
HaCaT = experiment: Antitumor activity against human HaCaT cells assessed as inhibition of cell growth measured after 48 hrs by spectrophotometric analysis
HeLa [15] = experiment: Cytotoxicity against human HeLa cells measured after 24 hrs by MTT assay
HepG2 [16] = experiment: Cytotoxicity against human HepG2 cells measured after 24 hrs by MTT assay; conditions: HepG2, 24 h
A549 [17] = experiment: Antiproliferative activity against human A549 cells incubated for 72 hrs by MTT assay; conditions: A549, 72 h
MDA-MB-231 = experiment: Antiproliferative activity against human MDA-MB-231 cells incubated for 72 hrs by MTT assay; conditions: MDA-MB-231, 72 h
PANC-1 = experiment: Antiproliferative activity against human PANC-1 cells incubated for 72 hrs by MTT assay; conditions: PANC-1, 72 h
T98G = experiment: Antiproliferative activity against human T98G cells incubated for 72 hrs by MTT assay
Hs 683 = experiment: Antiproliferative activity against human Hs 683 cells incubated for 72 hrs by MTT assay; conditions: Hs 683, 72 h
[18] = Cytotoxicity against mouse J558 cells assessed as growth inhibition measured upto 48 hrs by CCK-8 assay; conditions: J558, 48 h
Ramos = experiment: Cytotoxicity against human Ramos RA.1 cells assessed as growth inhibition measured upto 48 hrs by CCK-8 assay
B16 = experiment: Cytotoxicity against mouse B16 cells by MTT assay
HT-29 [19] = experiment: Cytotoxicity against human HT-29 cells by MTT assay
HeLa [20] = experiment: Cytotoxicity against human HeLa cells by MTT assay
HeLa [21] = experiment: Cytotoxicity against human HeLa cells assessed as cell viability incubated for 1 hr by spectrophotometry
HepG2 [22] = experiment: Cytotoxicity against human HepG2 cells assessed as cell viability incubated for 1 hr by spectrophotometry; conditions: HepG2, 1 h
Bel-7402 = experiment: Cytotoxicity against human Bel-7402 cells assessed as cell viability incubated for 1 hr by spectrophotometry; conditions: Bel-7402, 1 h
BGC-823 = experiment: Cytotoxicity against human BGC-823 cells assessed as cell viability incubated for 1 hr by spectrophotometry; conditions: BGC-823, 1 h
KB [23] = experiment: Cytotoxicity against human KB cells assessed as cell viability incubated for 1 hr by spectrophotometry
LoVo [24] = experiment: Cytotoxicity against human LoVo cells assessed as cell viability incubated for 1 hr by spectrophotometry
A549 [25] = experiment: Cytotoxicity against human A549 cells assessed as cell viability incubated for 1 hr by spectrophotometry; conditions: A549, 1 h
A-375 = experiment: Cytotoxicity against human A-375 cells assessed as cell viability incubated for 1 hr by spectrophotometry; conditions: A-375, 1 h
786-0 [26] = experiment: Cytotoxicity against human 786-0 cells assessed as cell viability incubated for 1 hr by spectrophotometry; conditions: 786-0, 1 h
HT-29 [27] = experiment: Cytotoxicity against human HT-29 cells assessed as cell viability incubated for 1 hr by spectrophotometry; conditions: HT-29, 1 h
769-P = experiment: Cytotoxicity against human 769-P cells assessed as cell viability incubated for 1 hr by spectrophotometry
CNE = experiment: Cytotoxicity against human CNE-1 cells incubated for 72 hrs by MTT assay
CNE-2 = experiment: Cytotoxicity against human CNE-2 cells incubated for 72 hrs by MTT assay; conditions: CNE-2, 72 h
HONE1 cell line = experiment: Cytotoxicity against human HONE1 cell line incubated for 72 hrs by MTT assay; conditions: HONE1, 72 h
SUNE1 = experiment: Cytotoxicity against human SUNE1 cells incubated for 72 hrs by MTT assay; conditions: SUNE1, 72 h
HepG2 [28] = experiment: Cytotoxicity against human HepG2 cells incubated for 72 hrs by MTT assay; conditions: HepG2, 72 h
[29] = Cytotoxicity against human QGY-7701 cells incubated for 72 hrs by MTT assay; conditions: QGY7701, 72 h
SMMC-7721 = experiment: Cytotoxicity against human SMMC-7721 cells measured after 48 hrs by MTT assay; conditions: SMMC-7721, 48 h
HepG2 [30] = experiment: Cytotoxicity against human HepG2 cells measured after 48 hrs by MTT assay; conditions: HepG2, 48 h
EJ = experiment: Cytotoxicity against human EJ cells measured after 48 hrs by MTT assay
HCT-116 = experiment: Cytotoxicity against human HCT-116 cells measured after 48 hrs by MTT assay; conditions: HCT-116, 48 h
NCI-H460 [31] = experiment: Cytotoxicity against human NCI-H460 cells measured after 48 hrs by MTT assay; conditions: NCI-H460, 48 h

Oc1cccc2c1[nH]c1c(C3=C[C@@]4(O)CC/C=C\CCCCN5CC[C@@H]3[C@]3(C[C@@H]6/C=C\CCCCN6[C@H]34)C5)nccc12
IC50 (KB [1]; Homo sapiens, KB, read-out: IC50): 0.3 µg/mL | IC50 (LoVo [2]): 0.26 µg/mL (≈ 0.46 µM)

CC[C@H](C)[C@H](NC(=O)[C@H](Cc1c[nH]c2ccccc12)NC(=O)[C@H](Cc1c[nH]c2ccccc12)NC(=O)c1cc2c([nH]c3ccccc32)c(-c2ccc(O)c(OC)c2)n1)C(=O)OCc1ccccc1
IC50 (K562): 12 µM

C[C@@H](O)CCCCC(=O)c1nccc2c1[nH]c1ccccc12
IC50 (A549 [3]): 1.7 µM

CC(C)OC(=O)c1cc2c([nH]c3ccccc32)c(-c2cccc3ccccc23)n1
IC50 (OVCAR-3 [4]): 7.5 µM | IC50 (SW480): 2.7 µM | IC50 (PC-3 [5]): 7.1 µM

NCCCCNC(=O)c1cc2c(cn1)[nH]c1ccccc12
IC50 (KB [1]; kb): 8.6 µM | IC50 (HL-60): 8.6 µM | IC50 [6]: 8.6 µM

CCCCCCCCCCCCCCCCCCCCCCCC(=O)N1CCc2c([nH]c3ccc(O)cc23)[C@H]1Cc1ccc(O)cc1
IC50 (MCF7 [7]): < 2 µM | IC50 (HeLa [8]): < 2 µM | IC50 (Hep 3B2): < 2 µM

c1ccc(-c2nc(-c3nnc4snnn34)cc3c2[nH]c2ccccc23)cc1
IC50 (NCI-H460 [9]): 0.08 µM | IC50 (HT-29 [10]): 0.08 µM | IC50 (PC-3 [11]): 0.08 µM | IC50 (MCF7 [12]): 0.08 µM | IC50 (786-0 [13]): 0.08 µM | IC50 (U-251): 0.08 µM | IC50 (NCI/ADR-RES): 0.08 µM | IC50 (OVCAR-3 [14]): 0.08 µM | IC50 (HaCaT): 0.08 µM

COC(=O)c1cc2c([nH]c3ccccc32)c(-c2cccc(OCc3cn(-c4ccc(Cl)c(Cl)c4)nn3)c2)n1
IC50 (HeLa [15]): 46 µM | IC50 (HepG2 [16]): 32 µM

CCCn1c2cc(OCCC(C)C)ccc2c2cc[n+](Cc3ccccn3)c(C)c21
IC50 (A549 [17]): 0.2 µM | IC50 (MDA-MB-231): 0.2 µM | IC50 (PANC-1): 0.2 µM | IC50 (T98G): 0.2 µM | IC50 (Hs 683): 0.2 µM

CCCCn1c2ccccc2c2cc[n+](Cc3ccc(F)cc3)c(-c3ccccc3Cl)c21
IC50 [18]: 8.02 µM | IC50 (Ramos): 9.08 µM

COc1cc(C(=O)/C=C/c2cc3c([nH]c4ccccc43)c(-c3cc(OC)c(OC)c(OC)c3)n2)cc(OC)c1OC
IC50 (B16): 5.3 µM | IC50 (HT-29 [19]): 5.3 µM | IC50 (HeLa [20]): 5.3 µM | IC50 (PC-3 [5]): 5.3 µM

COc1ccc(/C=C/c2c3c(cc[n+]2Cc2ccccc2)c2ccccc2n3CCCc2ccccc2)cc1
IC50 (HeLa [21]): < 5 µM | IC50 (HepG2 [22]): < 5 µM | IC50 (Bel-7402): < 5 µM | IC50 (BGC-823): < 5 µM | IC50 (KB [23]): < 5 µM | IC50 (LoVo [24]): < 5 µM | IC50 (A549 [25]): < 5 µM | IC50 (A-375): < 5 µM | IC50 (786-0 [26]): < 5 µM | IC50 (HT-29 [27]): < 5 µM | IC50 (769-P): < 5 µM

O=C(c1nccc2c1[nH]c1ccccc12)[C@@H](O)CCCO
IC50 (CNE): 16.3 µM | IC50 (CNE-2): 20.6 µM | IC50 (HONE1 cell line): 20.1 µM | IC50 (SUNE1): 45.3 µM | IC50 (HepG2 [28]): 50.9 µM | IC50 [29]: 29 µM

Cc1nc(C(=O)NCCCCNC(=O)c2ccccc2O)cc2c1[nH]c1ccccc12
IC50 (SMMC-7721): 6.97 µM | IC50 (HepG2 [30]): 6.97 µM | IC50 (EJ): 6.97 µM | IC50 (HCT-116): 6.97 µM | IC50 (NCI-H460 [31]): 6.97 µM
